The supplement of paper PMC8882468

Assays:
Test in all cases: CTG-3D luminescence at 96 h relative to day-0 seeding control (ratio to day 0); higher = more growth / less cytotoxicity; PDxO 3D drug screen (set 2), 96 h, CTG-3D normalised to day-0 seeding control.
HCI-001 = test system: HCI-001 (organoid from a triple-negative breast cancer xenograft)
HCI-025 = test system: HCI-025 (organoid from a breast cancer xenograft)
HCI-002 = test system: HCI-002 (organoid from a triple-negative breast cancer xenograft)
HCI-015 = test system: HCI-015 (organoid from a triple-negative breast cancer xenograft)
HCI-011.E2 = test system: HCI-011.E2 (organoid from an ER-positive breast cancer xenograft)
HCI-024 = test system: HCI-024 (organoid from a breast cancer xenograft)

O=C(c1cc(Cc2n[nH]c(=O)c3ccccc23)ccc1F)N1CCN(C(=O)C2CC2)CC1 [olaparib]
CTG-3D luminescence at 96 h
Settings	12.5 pM	0.00025 µM	0.005 µM	0.1 µM	1 µM	10 µM	100 µM	625 fM
HCI-001, days in culture: 365	2.29	1.96	2.13	2.28	2.05	2.04	1.96	1.74
HCI-001, days in culture: 397	1.71	2.02	2	1.8	2.31	2.16	1.24	1.26
HCI-001, days in culture: 401	1.69	1.42	1.54	1.68	1.23	1.73	1.26	1.62
HCI-002, days in culture: 127	2.26	2.88	2.92	2.97	2.45	2.59	2.23	2.54
HCI-002, days in culture: 155	4.7	4.7	5.6	6.16	4.47	2.8	2.34	4.33
HCI-002, days in culture: 168	3.4	3.26	4.03	3.35	3.14	2.04	1.7	3.55
HCI-011.E2, days in culture: 74	2.53	2.44	2.19	2.22	1.57	0.94	0.157	2.66
HCI-015, days in culture: 333	1.88	1.11	1.59	1.95	0.972	0.511	0.241	1.03
HCI-015, days in culture: 355	2.43	3.28	1.71	1.6	0.993	0.516	0.951	2.1
HCI-015, days in culture: 369	2.43	1.41	2.36	1.91	1.9	1.05	1.24	2.02
HCI-024, days in culture: 202	0.819	0.984	0.907	1.28	0.775	1.01	0.38	1.05
HCI-024, days in culture: 231	0.787	0.983	0.972	1.27	1.78	1.27	0.836	1.4
HCI-024, days in culture: 254	1.65	1.41	1.28	1.24	1.88	1.07	0.671	1.54
HCI-025, days in culture: 175	1.97	2.33	1.9	1.95	3.08	2.2	0.866	2.02
HCI-025, days in culture: 189	1.46	2.11	1.91	2.25	1.86	1.28	0.825	2.78
HCI-025, days in culture: 212	3.74	3.65	1.79	1.22	1.32	1.72	0.66	2
HCI-025, days in culture: 224	1.96	1.72	1.81	1.9	2.05	1.41	0.478	1.81

HCI-011.E2
Settings	CTG-3D luminescence at 96 h
12.5 pM	1.58
0.00025 µM	1.55
0.005 µM	1.41
0.1 µM	1.95
1 µM	1.6
10 µM	1.14
100 µM	0.266
625 fM	2.1

Nc1cc(C(F)(F)F)c(-c2cc(N3CCOCC3)nc(N3CCOCC3)n2)cn1 [buparlisib]
CTG-3D luminescence at 96 h
Settings	12.5 pM	0.00025 µM	0.005 µM	0.1 µM	1 µM	10 µM	100 µM	625 fM
HCI-001, days in culture: 365	3.09	2.29	2.5	3.19	1.82	0.687	0.646	1.89
HCI-001, days in culture: 397	1.95	2.38	2.48	2.22	1.46	0.715	0.507	1.44
HCI-001, days in culture: 401	1.47	1.87	1.41	1.86	1.11	0.572	0.512	1.76
HCI-002, days in culture: 127	2.59	2.87	2.94	3.16	2.14	0.496	0.461	2.98
HCI-002, days in culture: 155	5.8	5.75	6.05	5.13	3.11	0.466	0.411	4.41
HCI-002, days in culture: 168	3.25	3.53	3.92	2.96	2.25	0.309	0.241	4.04
HCI-011.E2, days in culture: 74	2.23	1.9	1.83	2.23	0.711	0.135	0.0559	2.32
HCI-015, days in culture: 333	2.29	1.36	1.57	1.43	0.645	0.204	0.269	1.16
HCI-015, days in culture: 355	1.31	3.75	1.42	1.76	0.946	0.466	0.46	2.06
HCI-015, days in culture: 369	1.92	1.66	2.47	1.92	0.94	0.378	0.599	1.66
HCI-024, days in culture: 202	0.94	1.8	0.863	1.75	0.649	0.995	0.453	1.69
HCI-024, days in culture: 231	0.962	1.28	0.905	1.7	0.751	0.659	0.357	1.23
HCI-024, days in culture: 254	1.89	0.93	0.779	1.12	1.08	0.637	0.959	2.39
HCI-025, days in culture: 175	1.38	1.85	1.95	1.88	1.75	0.433	0.118	1.71
HCI-025, days in culture: 189	2.47	2.03	1.96	1.69	1.36	0.246	0.0627	2.83
HCI-025, days in culture: 212	3.39	3.81	2.06	1.13	1.13	0.331	0.0312	1.54
HCI-025, days in culture: 224	2.03	2.32	1.5	1.44	1.75	0.339	0.136	1.69

HCI-011.E2
Settings	CTG-3D luminescence at 96 h
12.5 pM	1.59
0.00025 µM	1.75
0.005 µM	1.23
0.1 µM	1.38
1 µM	0.772
10 µM	0.191
100 µM	0.0881
625 fM	2.09
